Reference: patent US7820629B2, “Galactose derivative, drug carrier and medicinal composition” (Nippon Shinyaku Co., Ltd., priority 2006, dated 2010)

System: HuH-7 cells (human hepatoma cell line)
Assay: Evaluation of liver-targeting: uptake of tritium-labeled siRNA composition
Type: cell-based
Details: carriers of Examples 2 to 6 or Comparative Example 1 with tritium-labeled siRNA 100 nM, eight hours, by content (mg) of the Example 1 derivative
Method: (1) Preparation of a Nucleic Acid Solution
A nucleic acid solution containing a tritium-labeled siRNA composed of an oligo RNA having a sequence of SEQ ID NO 1 and an oligo RNA having a sequence of SEQ ID NO 2 was prepared by introducing tritium-labeled [2,5′,8-3H]adenosine 5′-triphosphate ammonium salt (manufactured by Amersham Bioscience), using in-vitro Transcription T7 Kit (manufactured by Takara Bio). The siRNA concentration in the nucleic acid solution was 20 μM. The specific activity was 6.4×10^5 dpm/μg.
341.25 μL of a nucleic acid solution containing 20 μM of a tritium-unlabeled siRNA composed of an oligo RNA having a sequence of SEQ ID NO 1 and an oligo RNA having a sequence of SEQ ID NO 2 was added to 8.75 μL of the nucleic acid solution prepared in the above step, thereby preparing a nucleic acid solution having a specific activity of 1.6×10^4 dpm/μg.
(2) Preparation of a Composition […]
HuH-7 cells (human hepatoma cell line) were seeded on a 6-well plate at 2.5×10^5 cells/well, and were incubated for 18 hours at 37° C. under 5% CO2. […] 4 mL of a liquid scintillation cocktail (Emulsifier Scintillator Plus, manufactured by Perkin Elmer) was added to each of the vials and mixed well, and the radioactivity was counted with a liquid scintillation counter (manufactured by Perkin Elmer).

N-[1-(D)-deoxylactito-1-yl]oleamide [Example 1]
liver-targeting potency (radioactivity of cells, FIG. 1): increases depending on the content
